Laboratory results as given in patent US6455593B1, “Method of dynamic retardation of cell cycle kinetics to potentiate cell damage” (priority 1995, dated 2002).

Columns and labels:
[1] = tested on: human promonocytic lymphoma cells (U937); test: Microculture indicator system (MIS), MTT growth inhibition assay with bivariate serial dilutions; format: cell-based
Experimental: Microcultures of human promonocytic lymphoma cells (U937) (“the U937 cells”) originally obtained from the American Type Culture Collection (CRL 1593) and later grown by Dr. K. Zoon at the FDA in Bethesda, Md. were set up in a multiwell plate with serial two-fold dilutions of dThd in tissue culture growth medium (RPMI 1640 plus 10% Nurserum and antibiotics). The volume of medium per well was 100 μl and the cell number per well was about 1×10^5. The plate was incubated at 37° C. for 24 hr.
A dye, 3-[4,5-dimethylthiazol-2-yl]-2,5-diphenyl-tetrazolium bromide (MTT), was used as a chromogenic indicator of the metabolically active cell mass. Viable cells metabolize the dye and accumulate a reduced formazan product (blue color) which is solubilized for colorimetry. Mossman T, J. Immunol. Methods 5:55-63 (1983); Li L and Lau B H S, In Vitro Cell Dev. Biol. 29A:531-536 (1993). The MTT assay has been established as useful for measuring either growth inhibition or population killing. Plowman, supra. The MTT method is ideal for cells tested in suspension growth, and can also be used for some cells growing in monolayers. […] Alley, supra; Hofs, supra; Wilson J K et al., Br. J. Cancer 62:189-94 (1990); Plowman, supra.
Thirty μl of 0.5% MTT in phosphate buffered saline was added to each microculture well at the appropriate time. After incubation at 37° C. for 3 hr, 120 μl of an aqueous solution of 10 % SDS with 0.01 N HCl was added to release and dissolve formazan product. This was accomplished by overnight incubation of the plate at 37° C. After careful mixing of the microwell contents by placing the plates on an orbital shaker for 5 minutes the absorbencies were quantitated by spectrophotometry at 570 nm with a Ceres UV 900 HDI microwell plate reader (from Biotek Instruments Inc, Winooski, Vt. 05404-0998). Absorbance data was normalized to a blank well containing all reagents without cells and was collected semi-automatically.
Flat-bottom 96-well plates of tissue culture quality (Corning or Costar) were set up with two-fold serial dilutions of each agent to be tested, e.g., the RA and TCI, using a multichannel pipettor with adjustable volume, e.g., Costar or Rainin, to perform serial mixing. This set-up is diagrammed in FIG. 12. […] In each plate, a total of 59 wells then contained bivariate agent combinations, the bivariate serial dilutions.
Agents were serially diluted by serial mixing in two separate plates or series of wells, and then were combined prior to addition of a fixed volume and density of the U937 cells in a suspension calculated to deliver about 1×10^5 cells per well.
Cells were added after serial dilutions of the dThd had been dispensed. Cells were dispensed at about 10×10^4 cells per microwell to provide optimal sensitivity of detection of cell damage in subsequent calorimetric assays. […] The final volume of medium was 100 μl/well. The plates were further incubated at 37° C. for a total duration of 18-24 h. The dye MTT was used as a chromogenic indicator of the residual and metabolically active cell mass. (Described in Example 1).
In this MTT assay, normalized absorbance data was collected semi-automatically from each microculture well with a Ceres UV 900 HD1 plate reader, from Biotek Instruments Inc., Winooski, V T 05404-0998, stored in an EIA file under the Ceres 900 program, transferred in comma delimited format to a floppy diskette, and imported into a spread sheet program (Borland Quattro Pro) for data manipulations.

U937 cells [2] = test: Flow cytometric cell cycle analysis (propidium iodide); format: cell-based, human
Experimental: Flow cytometric analyses were performed with a Coulter Epics System (purchased from Coulter Corp, Hialeah, Fla.). Cells were disrupted in buffer with 0.1% Triton-X 100 (or 0.6 % NP-40), so that the nuclei could be stained with 0.05% propidium iodide (PI). See Shapiro N M, Practical Flow Cytometry, Man R Liss, NY (1988); Nicoletti I et al., J Immunol Methods 139:271-9 (1991). Analyses of 10,000 nuclei were performed with graduated concentrations of dThd at serial time points. Histograms of PI fluorescent emissions at 675±10 nm were used to discriminate cell cycle fractions of the target population. The proportion of cells in each phase of the cell cycle is represented by stack bars above the X-axis as a fraction of those cells with intact DNA structure. The fraction of cells with depleted DNA in each sample is represented below the X-axis as a percentage of the total cell number. Cells with depleted DNA are presumed apoptotic. Crompton S T et. al. Biophys. Biochem. Res. Comm. 183:532-537 (1992). Each stack bar in FIG. 5 represents the cell cycle distribution of a population sample of >10,000 cells, analyzed for each indicated dThd concentration at indicated treatment times.
Flow cytometric analyses were performed as in Example 2. The results are shown in plot A of FIG. 5 from Example 2.
The U937 cells were exposed to a range of concentrations below the IC40 and sampled for flow cytometry at intervals of 8, 16, and 24 hours. Flow cytometric analysis was performed as described in Example 2.

[3] = tested on: Burkitt's lymphoma cell line Raji; test: MIS MTT growth inhibition assay; format: cell-based, human; details: total 24 Hours
[4] = after oral ingestion; cited from earlier work
p. falciparum D6 = test: Parasite growth by 3H-hypoxanthine uptake in infected erythrocytes; format: cell-based; details: Plasmodium falciparum, D6, Erythrocyte; 24 hr after RBC infection, 3H-hypoxanthine uptake; read-out: inhibitory concentrations (IC50), strain D6
p. falciparum W2 = test: as above; format: cell-based; details: Plasmodium falciparum, W2, Erythrocyte; 24 hr after RBC infection, 3H-hypoxanthine uptake; read-out: inhibitory concentrations (IC50), strain W2
U937 cells [5] = test: DNA gel electrophoresis for DNA fragmentation (apoptosis); format: cell-based, human
Experimental: Samples of the U937 cells were exposed to a series of concentrations of dThd for 24 hr. Their DNA was isolated by lysis of cell samples in TE buffer containing TRIS 10 mM, EDTA 10 mM, SDS 0.5% and proteinase K 200 μg/ml at […] for 2 h. The proteins were precipitated in a IM solution of NaCl and centrifuged at 2,500×g for 30 min at […] DNAse free RNase (25 μg/ml) was added to the supernatant and incubated for 30 min at 37° C. Spectrophotometric quantitation of the DNA in the supernatant was quantitated by absorbance spectrophotometry at 260 nm. Volumes adjusted to contain equal amounts of DNA were mixed with a loading buffer of 40% (w/v) sucrose, 0.1M EDTA pH 8.0, 0.5% (w/v) sodium lauryl sulphate and 0.05% (w/v) bromophenol blue. […] Separated bands of DNA were stained with ethidium bromide and photographed in UV light (Fotodyne Inc.). […] The lowest molecular weight (about 180 bp) was determined with a standard 123 bp ladder from Sigma Chemical Co. (Cat. #D5042). The result shown is a classical “DNA ladder,” characteristic of the fragmentation of DNA macromolecules in apoptosis. See Tomei, supra; Obeid, supra; Gold, supra.

[6] = Homo sapiens, U-937, 4 h, U937, HU […] 4 H, K252a 0, read-out: MTT % inhibition, HU only

## O=c1[nH]c(=O)n([C@H]2C[C@H](O)[C@@H](CO)O2)cc1Br [BrdU, bromodeoxyuridine]
[1]; U937
  RA concentration for STSP potentiation relative to concentration causing cell cycle arrest: at least one log lower
[1]; U937, BrdU 0.01 mM (c19) for 4 H, STSP for 18 H, total 22 H, STSP nM rows r7-r12: 200,100,60,26,12.6,6.25, r14 BrdU alone
  Growth inhibition (MTT), BrdU 0.01 mM (ninth dilution): 4%
[1]; U937, BrdU 0.01 mM (c21, last dilution) for 4 H, STSP for 18 H, total 22 H, STSP nM rows r7-r12: 200,100,60,26,12.6,6.25, r14 BrdU alone
  Growth inhibition (MTT), BrdU 0.01 mM (tenth, last dilution): 4%
[1]; U937, BrdU 0.02 mM for 4 H, STSP for 18 H, total 22 H, STSP nM rows r7-r12: 200,100,60,26,12.6,6.25, r13 BrdU alone
  Combined results ratio (CRR), BrdU 0.02 mM: 1.0
[1]; U937, BrdU 0.02 mM for 4 H, STSP for 18 H, total 22 H, STSP nM rows r7-r12: 200,100,60,26,12.6,6.25, r14 BrdU alone
  Growth inhibition (MTT), BrdU 0.02 mM: 5%
[1]; U937, BrdU 0.06 mM for 4 H, STSP for 18 H, total 22 H, STSP nM rows r7-r12: 200,100,60,26,12.6,6.25, r13 BrdU alone
  Combined results ratio (CRR), BrdU 0.06 mM: 1.0
[1]; U937, BrdU 0.06 mM for 4 H, STSP for 18 H, total 22 H, STSP nM rows r7-r12: 200,100,60,26,12.6,6.25, r14 BrdU alone
  Growth inhibition (MTT), BrdU 0.06 mM: 10%
[1]; U937, BrdU 0.09 mM for 4 H, STSP for 18 H, total 22 H, STSP nM rows r7-r12: 200,100,60,26,12.6,6.25, r13 BrdU alone
  Combined results ratio (CRR), BrdU 0.09 mM: 1.0
[1]; U937, BrdU 0.09 mM for 4 H, STSP for 18 H, total 22 H, STSP nM rows r7-r12: 200,100,60,26,12.6,6.25, r14 BrdU alone
  Growth inhibition (MTT), BrdU 0.09 mM: 21%
[1]; U937, BrdU 3.00 mM for 4 H, STSP for 18 H, total 22 H, STSP nM rows r7-r12: 200,100,60,26,12.6,6.25, r13 BrdU alone
  Combined results ratio (CRR), BrdU 3.00 mM: 1.0
[1]; U937, BrdU 3.00 mM for 4 H, STSP for 18 H, total 22 H, STSP nM rows r7-r12: 200,100,60,26,12.6,6.25, r14 BrdU alone
  Growth inhibition (MTT), BrdU 3.00 mM: 61%
[1]; U937, BrdU […] for 4 H, STSP for 18 H, total 22 H, STSP nM rows r7-r12: 200,100,60,26,12.6,6.25, r13 BrdU alone
  Combined results ratio (CRR), BrdU […]: 1.0
U937 cells [2]; bivariate flow cytometry, PI and fluorescein-labelled antibody to BrdU
  Effect on S phase: produced a slowing of S phase similar to that caused by dThd

## NC(=O)NO [HU, hydroxyurea]
[1]; Homo sapiens, U-937, 4 h, U937, HU 0.01 mM 4 H, K252a 0, read-out: MTT % inhibition, HU only
  inhibition at 10 µM: -1%
[1]; Homo sapiens, U-937, 4 h, U937, HU 0.02 mM 4 H, K252a 0, read-out: MTT % inhibition, HU only
  inhibition at 20 µM: -1%
[1]; Homo sapiens, U-937, 4 h, U937, HU 0.03 mM 4 H, K252a 0, read-out: MTT % inhibition, HU only
  inhibition at 30 µM: 1%
[1]; Homo sapiens, U-937, 4 h, U937, HU 0.06 mM 4 H, K252a 0, read-out: MTT % inhibition, HU only
  inhibition at 60 µM: 9%
[1]; Homo sapiens, U-937, 4 h, U937, HU 0.50 mM 4 H, K252a 0, read-out: MTT % inhibition, HU only
  inhibition at 500 µM: 48%
[1]; Homo sapiens, U-937, 4 h, U937, HU 1.00 mM 4 H, K252a 0, read-out: MTT % inhibition, HU only
  inhibition at 1000 µM: 52%
[1]; Homo sapiens, U-937, 4 h, U937, HU 2.00 mM 4 H, K252a 0, read-out: MTT % inhibition, HU only
  inhibition at 2000 µM: 59%
[1]; [6]
  inhibition at 130 µM: 20%
  inhibition at 250 µM: 36%
[1]; MTT tests, about 0.05 to 3 mM, preliminary results
  Enhancement of DEET-induced apoptosis as prospective RA: no significant enhancement of the DEET-induced apoptosis
[1]; U937, HU 0.00 mM (so in the source) 4 H, K252a 0
  MTT % inhibition, HU only: −2%
[3]; HU only 0.00 mM
  Growth Inhibition: −3%
[3]; HU only 0.01 mM
  Growth Inhibition: −0%
[3]; HU only 0.02 mM
  Growth Inhibition: −7%
[3]; HU only 0.03 mM
  Growth Inhibition: −7%
[3]; HU only 0.05 mM
  Growth Inhibition: −7%
[3]; HU only 0.50 mM
  Growth Inhibition: 0%
[3]; HU only 1.00 mM
  Growth Inhibition: 0%
[3]; HU only 2.00 mM
  Growth Inhibition: 17%
[4]
  Time of blood level peak: 2 to 4 h
p. falciparum D6
  IC50: 175 µM
U937 cells [2]; 0.125-1 mM HU, up to 16 hr, U937
  Cells that became DNA depleted: no more than 20%
U937 cells [2]; HU>1 mM (2 mM at 24 hr), U937
  Cells with depleted DNA: a major increase in cells with depleted DNA became evident
p. falciparum W2
  IC50: 219 µM

## CCCCCCCCCCCCCC(=O)O[C@@H]1[C@@H](C)[C@@]2(O)[C@@H](C=C(CO)C[C@]3(O)C(=O)C(C)=C[C@@H]23)[C@H]2C(C)(C)[C@]12OC(C)=O [TPA, 12-0-tetradecanoyl-phorbol-13-acetate]
U937 cells [5]; 10 nM TPA 48 hours differentiation, then dThd […], STSP 25 nM 7 hours
  Effect on dThd potentiation of STSP DNA fragmentation: significantly reduced dThd potentiation of DNA fragmentation during STSP treatment

## Nc1ccn([C@H]2C[C@H](O)[C@@H](CO)O2)c(=O)n1 [dCyt, deoxycytidine]
U937 cells [5]; dCyt added to U937 cultures treated with dThd and STSP
  Effect on DNA fragmentation by dThd and STSP: decreased DNA fragmentation
